Measurements taken from patent publication US12624019B2, “Indazole derivative, and preparation method therefor and use thereof” (Leadingtac Pharmaceutical (Shaoxing) Co., Ltd., priority 2020, dated 2026).

Experiments:
[1] = target: T1, IRAK4 kinase (Homo sapiens, UniProt Q9NWZ3); experiment: IRAK4 kinase activity test (KinEASE-STK HTRF kit); assay type: biochemical; conditions: IRAK4 kinase inhibition, 7 μM ATP, 37° C. 120 min
T1 sequence (Q9NWZ3 1-460): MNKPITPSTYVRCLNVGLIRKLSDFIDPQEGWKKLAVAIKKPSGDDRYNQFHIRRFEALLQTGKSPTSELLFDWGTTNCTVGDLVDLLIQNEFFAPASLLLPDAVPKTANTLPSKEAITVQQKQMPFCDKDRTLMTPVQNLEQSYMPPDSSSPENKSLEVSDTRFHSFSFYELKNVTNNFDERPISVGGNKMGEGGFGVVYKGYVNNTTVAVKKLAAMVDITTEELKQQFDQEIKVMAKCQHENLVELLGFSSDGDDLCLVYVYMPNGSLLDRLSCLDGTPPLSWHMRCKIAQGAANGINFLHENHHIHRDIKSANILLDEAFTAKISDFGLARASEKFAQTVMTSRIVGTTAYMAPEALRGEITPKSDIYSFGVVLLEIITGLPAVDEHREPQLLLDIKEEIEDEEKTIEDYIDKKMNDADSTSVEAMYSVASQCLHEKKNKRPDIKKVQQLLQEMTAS
Experimental: KinEASE-STK Si serine/threonine kinase kit (Cisbio) was used to detect the inhibitory effect of the compound on IRAK4 kinase activity. The specific method was: the compound was dissolved in dimethyl sulfoxide, and then it was diluted with the buffer solution of the kit by equal gradient to make the final concentration range of the tested compound in the reaction system 10000 nM-0.038 nM, then 2.5 nM kinase, 1 μM biotinylated polypeptide substrate and 7 μM adenosine triphosphate (ATP) were added in sequence and incubated at 37° C. for 120 min. Subsequently, anti-phosphorylated serine/threonine antibody coupled with europium element compound and modified XL665 streptavidin were added to the reaction system to terminate the reaction. After incubating at room temperature for 1 h, the fluorescence intensity of each well at the emission wavelength of 620 nm and 665 nm and the excitation wavelength of 337 nm was determined in HTRF mode on the microplate reader EnVision (PerkinElmer), the ratio value was calculated using the formula Ratio=(665 nm/620 nm)×10^4. By comparing with the fluorescence intensity ratio of the control group, the inhibition rate of the compound at each concentration was calculated, and then the IC50 value of the compound was obtained by fitting the nonlinear curve with the logarithmic concentration-inhibition rate by GraphPad Prism 7.

[2] = target: T2, IRAK4 kinase protein in THP-1 cells (Homo sapiens, UniProt Q9NWZ3); experiment: Degradation of IRAK4 in THP-1 cells by Western Blot; assay type: cell-based; conditions: 24 hours; for DC50 / Dmax: IRAK4 degradation in THP-1 cells; for DC50: read-out: WB DC50; for Dmax: read-out: WB Dmax; for WB D(%) (300 nM) / WB D(%) (1000 nM): degradation percentage of IRAK4 in THP-1 cells; for WB D(%) (300 nM): compound 300 nM; for WB D(%) (1000 nM): compound 1000 nM
T2 construct: endogenous in cells; host or cells: THP-1 cells
T2 sequence (Q9NWZ3 1-460): T1 sequence (Q9NWZ3 1-460)
Experimental: Each well of the 24-well cell culture plate was inoculated with 0.95 mL THP-1 cells (stem cell bank of Chinese academy of sciences) with a cell density of 5×10^5 cells/well. The cell plate was placed in a 5% carbon dioxide incubator and cultured overnight at 37° C., then 50 μL compound in dimethyl sulfoxide was added. The final concentration of the compound was in the range of 1-3000 nM. After continuous cultivation for 24 hours, the cells were collected into a 1.5 mL centrifuge tube, centrifuged at 1000 rpm and 4° C. for 5 minutes. Cell precipitation was washed twice with 1×DPBS, resuspended cells were lysed with 200 μL lysate (cell lysate was Western and IP cell lysate (Beyotime), supplemented with 1 mM mixture of phenylmethylsulfonyl fluoride and protease inhibitor (Beyotime)), left on ice for 30 minutes, then centrifuged at 14000 g at 4° C. for 10 minutes, and the supernatant was taken to detect IRAK4 protein level by Western blot.
The total protein concentration in the supernatant of cell lysis was determined by BCA protein quantitative kit (Tiangen). According to the concentration of total protein detected by BCA, the supernatant was adjusted to […] with PBS and 5×SDS-PAGE protein loading buffer (Beyotime), bathed in water at 100° C. for 10 minutes, then placed in ice bath for 5 minutes, centrifuged at 14000 g and 4° C. for 5 minutes, and then collected as WB loading sample. Prefabricated glue (KeyGEN) was used for protein electrophoresis with a loading amount of 10 μL (total protein 2 μg). After Tris-MOPS-SDS electrophoresis solution (Adamas), 120V constant pressure electrophoresis was performed. After electrophoresis, the protein on the adhesive strip was transferred to PVDF membrane with a constant current of […] for 50 minutes. After the membrane was transferred, the membrane was added in 1×QuickBlock blocking buffer (Beyotime) and incubated for 30 minutes at room temperature. After blocking, PVDF membranes were incubated with IRAK4 primary antibody (Abcam) overnight at 4°, the membranes were washed with TBST buffer (2.4 g Tris, 8.8 g NaCl, 1.5 mL Tween 20, pH adjusted to 7.4, constant volume to 1 L) for 30 minutes, incubated with secondary antibody (Abcam) for 2 hours at room temperature, finally incubated with Clarity Western ECL Substrate (BIO-RAD) for 5 minutes for luminescence development, chemiluminescence imaging system (Clinx, chemiScope 6200 Touch) was used for development and protein mapping photography. The protein map was analyzed by Clinx chemiluminescence analysis software for grayscale values. Using the formula: grayscale correction value=(target protein grayscale value/corresponding internal reference grayscale value)×[…], the grayscale correction value of each sample was calculated. The degradation rate was calculated by comparing with the grayscale correction value of the control group. Furthermore, DC50 and Dmax values of the compound were obtained by the nonlinear curve fitting with the logarithmic concentration-inhibition rate by GraphPad Prism 7.

[3] = target: T3, IKZF1 (Homo sapiens, UniProt Q13422+Q96SW2); experiment: Degradation of IKZF1 in L363 cells by Western blot; assay type: cell-based; conditions: compound 1000 nM, 16 hours
T3 construct: endogenous in cells; host or cells: L363 cells
Experimental: (§1) The 24-well cell culture plate was inoculated with 0.95 mL L363 cells (Nanjing Co-bioer) per well with a cell density of 6×10^5 cells/well. The cell plate was placed in a 5% carbon dioxide incubator and cultured at 37° C. for 8 hours, then 50 μL of compound solution was added. The final concentration of the compound was 1000 nM. After continuing to culture for 16 hours, the cells were collected into a 1.5 mL centrifuge tube and centrifuged at 3000 rpm and 4° C. for 5 minutes. Cell precipitation was washed twice with 1×DPBS, resuspended cells were lysed with 100 μL lysate (cell lysate was Western and IP cell lysate (Beyotime), supplemented with 1 mM mixture of phenylmethylsulfonyl fluoride and protease inhibitor (Beyotime)), left on ice for 30 minutes, then centrifuged at 14000 g at 4° C. for 10 minutes, and the supernatant was taken to detect IKZF1 and IKZF3 protein level by Western blot.
(§2) The total protein concentration in the supernatant of cell lysis was determined by BCA protein quantitative kit (Tiangen). According to the concentration of total protein detected by BCA, the supernatant was adjusted to […] with PBS and 5×SDS-PAGE protein loading buffer (Beyotime), bathed in water at 100° C. for 10 minutes, then placed in ice bath for 5 minutes, centrifuged at 14000 g and 4° C. for 5 minutes, and then collected as WB loading sample. Prefabricated glue (KeyGEN) was used for protein electrophoresis with a loading amount of 10 μL (total protein 2 μg). After Tris-MOPS-SDS electrophoresis solution (Adamas), 120V constant pressure electrophoresis was performed. After electrophoresis, the protein on the adhesive strip was transferred to PVDF membrane with a constant current of […] for 50 minutes. After the membrane was transferred, the membrane was incubated in 5% bovine serum albumin solution for 2 hours at room temperature. After blocking, PVDF membranes were incubated with IKZF1 primary antibody (CST) and IKZF3 primary antibody (Abcam) overnight at 4°, the membranes were washed with TBST buffer (2.4 g Tris, 8.8 g NaCl, 1.5 mL Tween 20, pH adjusted to 7.4, constant volume to 1 L) for 30 minutes, incubated with secondary antibody (Abcam) for 2 hours at room temperature, finally incubated with Clarity Western ECL Substrate (BIO-RAD) for 5 minutes for luminescence development, chemiluminescence imaging system (Clinx, chemiScope 6200 Touch) was used for development and protein mapping photography. The protein map was analyzed by Clinx chemiluminescence analysis software for grayscale values. Using the formula: grayscale correction value=(target protein grayscale value/corresponding internal reference grayscale value)×10^3, the grayscale correction value of each sample was calculated. The degradation rate was calculated by comparing with the grayscale correction value of the control group.

[4] = target: T4, IKZF3 (Homo sapiens, UniProt Q96SW2+Q9UKT9); experiment: Degradation of IKZF3 in L363 cells by Western blot; assay type: cell-based; conditions: compound 1000 nM, 16 hours
T4 construct: endogenous in cells; host or cells: L363 cells
Experimental: as §1, §2

[5] = Pharmacokinetic study in mice; assay type: in vivo, SD mice
Experimental: The following experimental scheme was used to study the pharmacokinetic behavior of the compound of the present invention in mice and evaluate its pharmacokinetic characteristics.
Experimental scheme: 3 healthy SD mice, male, weighing […], were given 100 mg/kg compound by gavage with a volume of 10 mL/kg, prepared with […] (w/v). Before the test, they were fasted for 12 hours and freely drank water. Food was uniformly consumed 4 h after administration.
Three healthy SD mice, male, weighing […], were given 1 mg/kg compound intravenously with a volume of 5 mL/kg, prepared with 5% DMSO/15% solutol %80% PBS (w/v). Before the test, they were fasted for 12 hours and freely drank water. Food was uniformly consumed 4 h after administration.
0.1 mL of venous blood was taken through the submaxillary venous plexus of mice at 0.08 h, 0.25 h, 0.5 h, 1 h, 2 h, 4 h, 8 h, 24 h after gavage administration and 0.08 h, 0.25 h, 0.5 h, 1 h, 2 h, 4 h, 8 h, 24 h after intravenous administration, placed in a heparin test tube, centrifuged at 11000 rpm for 5 min, and plasma was separated, the concentration of compounds in plasma was determined by liquid chromatography-tandem mass spectrometry.

[6] = male, SD, mouse, po, gavage administration 100 mg/kg, plasma

T4 sequence (Q9UKT9 whole entry): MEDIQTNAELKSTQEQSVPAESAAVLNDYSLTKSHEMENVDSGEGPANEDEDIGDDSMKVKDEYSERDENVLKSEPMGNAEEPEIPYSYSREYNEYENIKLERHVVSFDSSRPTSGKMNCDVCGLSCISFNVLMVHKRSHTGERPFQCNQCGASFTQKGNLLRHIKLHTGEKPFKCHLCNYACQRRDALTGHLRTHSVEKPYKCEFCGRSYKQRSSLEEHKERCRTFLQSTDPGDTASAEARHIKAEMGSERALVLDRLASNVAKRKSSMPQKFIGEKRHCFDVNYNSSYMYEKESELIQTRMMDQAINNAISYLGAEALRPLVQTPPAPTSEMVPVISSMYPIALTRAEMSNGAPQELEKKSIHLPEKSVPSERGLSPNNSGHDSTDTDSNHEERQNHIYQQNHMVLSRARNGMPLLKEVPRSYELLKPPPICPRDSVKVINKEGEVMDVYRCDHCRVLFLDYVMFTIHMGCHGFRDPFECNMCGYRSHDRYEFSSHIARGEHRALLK
T4 sequence (Q96SW2 whole entry): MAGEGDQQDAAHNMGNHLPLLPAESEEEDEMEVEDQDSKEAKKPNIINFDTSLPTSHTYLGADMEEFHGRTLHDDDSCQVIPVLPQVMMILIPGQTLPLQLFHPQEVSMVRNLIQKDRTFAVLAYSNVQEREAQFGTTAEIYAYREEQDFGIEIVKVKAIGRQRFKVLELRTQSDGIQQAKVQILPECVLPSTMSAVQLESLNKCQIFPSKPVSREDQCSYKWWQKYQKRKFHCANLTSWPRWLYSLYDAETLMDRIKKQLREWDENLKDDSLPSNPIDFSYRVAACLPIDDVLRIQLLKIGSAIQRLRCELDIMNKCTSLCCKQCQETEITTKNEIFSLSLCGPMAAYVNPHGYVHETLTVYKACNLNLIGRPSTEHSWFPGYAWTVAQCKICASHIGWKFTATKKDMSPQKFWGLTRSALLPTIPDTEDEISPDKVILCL
T4 sequence (Q16531 whole entry partner): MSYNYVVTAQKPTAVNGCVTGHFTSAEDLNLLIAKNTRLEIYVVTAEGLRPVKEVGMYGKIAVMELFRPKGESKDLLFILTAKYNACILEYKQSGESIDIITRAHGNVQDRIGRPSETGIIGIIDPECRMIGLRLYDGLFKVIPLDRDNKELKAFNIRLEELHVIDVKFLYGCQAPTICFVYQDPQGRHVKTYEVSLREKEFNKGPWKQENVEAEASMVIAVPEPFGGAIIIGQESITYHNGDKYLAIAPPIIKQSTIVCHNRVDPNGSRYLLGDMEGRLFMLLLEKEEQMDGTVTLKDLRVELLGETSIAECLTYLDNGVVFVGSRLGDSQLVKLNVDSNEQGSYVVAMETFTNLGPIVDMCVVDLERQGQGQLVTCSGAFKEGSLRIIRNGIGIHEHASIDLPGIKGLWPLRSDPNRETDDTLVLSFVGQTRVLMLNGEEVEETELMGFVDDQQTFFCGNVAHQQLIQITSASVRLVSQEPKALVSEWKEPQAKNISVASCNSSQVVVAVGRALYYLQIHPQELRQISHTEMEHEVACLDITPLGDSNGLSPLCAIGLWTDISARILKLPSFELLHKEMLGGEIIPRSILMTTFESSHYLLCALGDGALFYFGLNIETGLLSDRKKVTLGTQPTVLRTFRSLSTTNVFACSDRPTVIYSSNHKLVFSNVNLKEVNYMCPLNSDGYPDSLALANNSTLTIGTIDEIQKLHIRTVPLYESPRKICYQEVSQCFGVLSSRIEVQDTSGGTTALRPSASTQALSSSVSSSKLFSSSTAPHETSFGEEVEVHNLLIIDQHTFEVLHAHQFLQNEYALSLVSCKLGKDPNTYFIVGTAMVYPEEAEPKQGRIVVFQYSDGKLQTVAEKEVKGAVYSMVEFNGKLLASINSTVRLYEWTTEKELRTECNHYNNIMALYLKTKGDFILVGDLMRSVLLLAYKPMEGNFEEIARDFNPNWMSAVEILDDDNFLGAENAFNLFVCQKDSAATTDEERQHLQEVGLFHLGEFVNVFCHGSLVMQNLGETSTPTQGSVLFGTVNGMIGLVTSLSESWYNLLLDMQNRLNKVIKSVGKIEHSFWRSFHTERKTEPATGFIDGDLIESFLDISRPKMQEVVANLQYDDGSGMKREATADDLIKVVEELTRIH
T3 sequence (Q13422 whole entry): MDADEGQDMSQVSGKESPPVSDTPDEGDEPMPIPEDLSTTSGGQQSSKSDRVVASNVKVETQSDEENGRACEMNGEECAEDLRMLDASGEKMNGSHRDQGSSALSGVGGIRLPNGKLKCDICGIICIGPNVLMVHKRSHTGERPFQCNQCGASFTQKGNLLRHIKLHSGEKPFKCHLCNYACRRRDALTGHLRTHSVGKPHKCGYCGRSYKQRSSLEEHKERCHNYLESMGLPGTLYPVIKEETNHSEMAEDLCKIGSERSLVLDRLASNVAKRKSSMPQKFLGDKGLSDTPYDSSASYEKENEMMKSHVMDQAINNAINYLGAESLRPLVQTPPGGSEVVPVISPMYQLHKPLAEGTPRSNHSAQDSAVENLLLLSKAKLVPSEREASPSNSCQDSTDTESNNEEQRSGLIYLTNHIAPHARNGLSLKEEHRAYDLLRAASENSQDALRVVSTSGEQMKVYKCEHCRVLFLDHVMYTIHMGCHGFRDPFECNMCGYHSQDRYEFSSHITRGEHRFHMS
T3 sequence (Q96SW2 whole entry): as the sequence (Q96SW2 whole entry) above
T3 sequence (Q16531 whole entry partner): as the sequence (Q16531 whole entry partner) above

| SMILES | IC50 [1] | DC50 [2] | Dmax [2] | WB D(%) (300 nM) [2] | WB D(%) (1000 nM) [2] | IKZF1 degradation rate (%) [3] | IKZF3 degradation rate (%) [4] | CL_pred ([5]; intravenous injection 1 mg/kg) | Vss_pred ([5]; intravenous injection 1 mg/kg) | AUC(0-t) ([5]; male, SD, mouse, intravenous injection 1 mg/kg, plasma) | bioavailability ([5]; male, SD, mouse, plasma, po, gavage 100 mg/kg vs intravenous 1 mg/kg) | AUC(0-t) [5, 6] | Cmax [5, 6] |
| --- | --- | --- | --- | --- | --- | --- | --- | --- | --- | --- | --- | --- | --- |
| CC(C)(O)c1cc2nn(C3CCN(CCN4CCN(c5ccc6c(c5)C(=O)N(C5CCC(=O)NC5=O)C6=O)CC4)CC3)cc2cc1NC(=O)c1cccc(C(F)(F)F)n1 (centres unmarked) [Example 4, N-(2-(1-(2-(4-(2-(2,6-dioxopiperidin-3-yl)-1,3-dioxoisoindolin-5-yl)piperazin-1-yl)ethyl)piperidin-4-yl)-6-(2-hydroxyprop-2-yl)-2H-indazol-5-yl)-6-(trifluoromethyl) pyridinecarboxamide] | 17.8 nM | 1.7 nM | 99.9% | 99.5% | 99.9% | 4.3 ± 0.8% | −4.5 ± 2.9% | – | – | – | – | – | – |
| COc1cc2nn(C3CCN(CC4CCN(CCOc5ccc6c(c5)C(=O)N(C5CCC(=O)NC5=O)C6=O)CC4)CC3)cc2cc1NC(=O)c1cccc(C(F)(F)F)n1 (centres unmarked) [Control group 2, N-(2-(1-((1-(2-((2-(2,6-dioxopiperidin-3-yl)-1,3-dioxoisoindol-5-yl)oxy)ethyl)piperidin-4-yl)methyl)piperidin-4-yl)-6-methoxy-2H-indazol-5-yl)-6-(trifluoromethyl) pyridinecarboxamide, reference compound] | – | – | 85.1% | 79.7% | 85.7% | 47.5 ± 9.7% | 71.2 ± 5.7% | 91.7 mL/min/kg | 109.4 L/kg | 122 ng·h/mL | 14% | 1720 ng·h/mL | 150 ng/mL |
| CC(C)(O)c1cc2nn(C3CCN(CCC4CCN(c5ccc6c(c5)C(=O)N(C5CCC(=O)NC5=O)C6=O)CC4)CC3)cc2cc1NC(=O)c1cccc(C(F)(F)F)n1 (centres unmarked) [Example 5, N-(2-(1-(2-(1-(2-(2,6-dioxopiperidin-3-yl)-1,3-dioxoisoindolin-5-yl)piperidin-4-yl)ethyl)piperidin-4-yl)-6-(2-hydroxyprop-2-yl)-2H-indazol-5-yl)-6-(trifluoromethyl) pyridinecarboxamide] | 41.1 nM | 12.1 nM | 92.4% | 91.3% | 89.5% | 18.8 ± 2.7% | 22.4 ± 6.6% | – | – | – | – | – | – |

Now from value to compound:

| IC50 [1] | DC50 [2] | Dmax [2] | WB D(%) (300 nM) [2] | WB D(%) (1000 nM) [2] | IKZF1 degradation rate (%) [3] | IKZF3 degradation rate (%) [4] | CL_pred ([5]; intravenous injection 1 mg/kg) | Vss_pred ([5]; intravenous injection 1 mg/kg) | AUC(0-t) ([5]; male, SD, mouse, intravenous injection 1 mg/kg, plasma) | bioavailability ([5]; male, SD, mouse, plasma, po, gavage 100 mg/kg vs intravenous 1 mg/kg) | AUC(0-t) [5, 6] | Cmax [5, 6] | SMILES |
| --- | --- | --- | --- | --- | --- | --- | --- | --- | --- | --- | --- | --- | --- |
| – | – | – | – | – | 99.7 ± 0.2% | 98.6 ± 0.6% | – | – | – | – | – | – | Nc1cccc2c1C(=O)N(C1CCC(=O)NC1=O)C2=O (centres unmarked) [Pomalidomide, reference compound] |
| – | – | – | – | – | 97.2 ± 2.6% | 92.8 ± 5.0% | – | – | – | – | – | – | CN(CC1CCN(c2cccc3c2C(=O)N(C2CCC(=O)NC2=O)C3=O)CC1)C[C@H]1CC[C@H](n2cc3cc(NC(=O)c4cccc(C(F)(F)F)n4)c(C(C)(C)O)cc3n2)CC1 (some centres unmarked) [Control group 3, N-(2-((1r,4r)-4-((((1-(2-(2,6-dioxopiperidin-3-yl)-1,3-dioxoisoindolin-4-yl)piperidin-4-yl)methyl)(methyl)amino)methyl)cyclohexyl)-6-(2-hydroxyprop-2-yl)-2H-indazol-5-yl)-6-(trifluoromethyl) pyridinecarboxamide, reference compound] |
